Results reported in patent US7998983B2, “Substituted isoxazoles as fungicides” (Syngenta Limited, priority 2004, dated 2011).

Key:
[1] = tested on: Sclerotinia homoeocarpa (common name: dollar spot); assay: Turf trial, dollar spot on creeping bentgrass; assay type: in vivo; conditions: creeping bentgrass plots; Compound 4 as 25% wetable powder at 2.2, 4.4, 8.8 g a.i. per 1000 square feet; mean disease <3.0% acceptable
From the text: Penncross during the spring.

[2] = tested on: leaf rust (Puccinia recondita: PUCCRT); assay: Cereal field trial, leaf rust on wheat; assay type: in vivo; conditions: winter wheat field trial; 9.5% emulsifiable concentrate; 140, 280 and 421 g a.i./ha; low natural incidence
Method: (§1) A field trial of Compound 4 was conducted on soft red winter wheat cultivar Sisson. Very dry weather gave rise to a low natural incidence of leaf rust (Puccinia recondita: PUCCRT) late in the trial. Compound 4 was applied as a 9.5% active ingredient (weight/weight) emulsifiable concentrate of the following formula (each weight/weight): 9.5% Compound 4, 9.5% m-Pyrol, 65% Surfadone LP-100, 6% Surfadone LP-300, 5% Toximul 3463F, and 5% Toximul 3464F. Rates of Compound 4 application were as follows (grams active ingredient per hectare: g a.i./ha): 140, 280 and 421.

[3] = tested on: soft red winter wheat cultivar Sisson; assay: Cereal field trial, yield; assay type: in vivo; conditions: highest rate of Compound 4 (421 g a.i./ha)
Method: as §1

[4] = tested on: creeping bentgrass cv. Penncross; assay: Turf trial, turfgrass quality and phytotoxicity; conditions: creeping bentgrass plots inoculated with S. homoeocarpa; ratings >6.0 acceptable
Method: A fungicide trial was conducted on a 15-yr-old sward of creeping bentgrass cv. Penncross during the spring. The turfgrass was maintained using cultural practices similar to those used in maintenance of bentgrass golf greens in the southern United States. Treatments were arranged as plots (0.5×1.0 m) in a randomized complete block design with four replications. […] All other fungicides were applied according to their labels (Banner MAXX 1.3ME and Insignia 20WG). The turfgrass was inoculated with autoclaved tall fescue seed infested with Sclerotinia homoeocarpa (common name: dollar spot) six hours after application of the initial preventive treatments. The plots received approximately 0.24 inches of irrigation water daily at 1700 hour to ensure nightly foliar wetness for infection. The Horsfall-Barratt rating scale was used to visually estimate disease severity at approximately 7-day intervals from the initial application date. Turfgrass quality was assessed using a 0-9 scale where 0=a necrotic, thin foliar canopy and 9=a dark green, dense foliar canopy. Disease and quality values were subjected to analysis of variance and means were statistically separated using the Scott-Knott cluster analysis procedure.

For `OC(c1cccnc1)c1c(-c2ccc(Cl)cc2Cl)noc1-c1cccc(Cl)c1` (stereo not shown) [Compound 4, 5-(3-Chlorophenyl)-3-(2,4-dichlorophenyl)-4-[(3-pyridyl)hydroxymethyl]-isoxazole], which “Dollar spot disease severity / control (Horsfall-Barratt rating)” value [1] is on record?
The value was “effective control on dollar spot during most of the trial period”.

And the “Control of leaf rust incidence” value [2]?
The value was “good control of the rust incidence”.

And the Yield enhancement [3]?
The Yield enhancement was “Yield enhancement was observed”.

What about the “Turfgrass quality (0-9 scale)” value [4] of the same compound?
Its value is “Highest quality ratings”.
